Experimental data as given in patent publication US20240351994A1, “MAXI-K POTASSIUM CHANNEL OPENERS FOR THE TREATMENT OF FRAGILE X ASSOCIATED DISORDERS” (Kaerus Bioscience Limited, priority 2020, published 2024).

Assays:
[1] = target: T1, BK channels (HEK-293 cell line expressing functional alpha subunits of BK channels) (Homo sapiens, UniProt Q12791); assay: Whole-cell patch clamp assay of BK channel stimulatory activity; format: cell-based; settings: 3 μM, percentage of control, stably transfected HEK-293 cells
T1 construct: expressed in transfected cells; host or cells: HEK-293 (stably transfected; geneticin and blasticidin selection)
T1 sequence (Q12791 whole entry): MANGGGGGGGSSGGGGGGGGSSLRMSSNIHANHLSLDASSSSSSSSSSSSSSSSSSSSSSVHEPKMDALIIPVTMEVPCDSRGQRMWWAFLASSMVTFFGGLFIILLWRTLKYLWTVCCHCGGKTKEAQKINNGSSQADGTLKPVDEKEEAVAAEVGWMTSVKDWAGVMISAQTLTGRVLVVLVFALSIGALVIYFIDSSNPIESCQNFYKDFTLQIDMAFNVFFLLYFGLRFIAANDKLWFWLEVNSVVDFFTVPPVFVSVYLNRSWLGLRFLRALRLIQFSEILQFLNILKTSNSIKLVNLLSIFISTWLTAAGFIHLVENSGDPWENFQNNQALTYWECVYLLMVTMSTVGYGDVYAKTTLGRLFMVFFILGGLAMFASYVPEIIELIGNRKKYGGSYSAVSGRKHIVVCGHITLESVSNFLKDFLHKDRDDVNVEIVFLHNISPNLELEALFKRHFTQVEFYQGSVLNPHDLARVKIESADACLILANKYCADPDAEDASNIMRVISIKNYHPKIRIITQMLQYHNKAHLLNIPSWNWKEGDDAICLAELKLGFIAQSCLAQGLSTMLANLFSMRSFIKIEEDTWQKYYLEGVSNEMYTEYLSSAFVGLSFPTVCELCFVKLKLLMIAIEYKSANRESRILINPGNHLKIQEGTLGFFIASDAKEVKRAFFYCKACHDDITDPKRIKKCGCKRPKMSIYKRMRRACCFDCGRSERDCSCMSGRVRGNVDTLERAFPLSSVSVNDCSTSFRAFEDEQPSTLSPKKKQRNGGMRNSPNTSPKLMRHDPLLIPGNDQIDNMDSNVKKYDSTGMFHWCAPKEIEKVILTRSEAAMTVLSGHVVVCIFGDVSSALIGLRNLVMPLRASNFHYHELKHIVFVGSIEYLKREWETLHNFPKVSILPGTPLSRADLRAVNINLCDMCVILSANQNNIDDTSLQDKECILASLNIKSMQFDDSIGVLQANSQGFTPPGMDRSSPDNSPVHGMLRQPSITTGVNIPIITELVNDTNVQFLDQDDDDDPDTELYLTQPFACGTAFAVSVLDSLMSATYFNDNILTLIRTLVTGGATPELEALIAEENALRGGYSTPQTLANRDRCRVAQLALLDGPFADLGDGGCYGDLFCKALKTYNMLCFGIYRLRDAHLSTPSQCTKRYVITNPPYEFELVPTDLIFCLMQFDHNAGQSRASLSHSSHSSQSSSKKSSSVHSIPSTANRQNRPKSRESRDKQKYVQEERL
Protocol: HEK-293 cell line expressing functional alpha subunits of BK channels were passaged at a confluence of 50 to 80%. Cells were seeded into 35 mm sterile culture dishes containing 2 mL culture complete medium. Cells were cultivated at a density that enables single cells (without visible connections to neighbouring cells) to be measured.
Cells were incubated at 37° C. in a humidified atmosphere with 5% CO2 (relative humidity about 95%). […]
The 35 mm culture dishes upon which cells were seeded at a density allowing single cells to be recorded were placed on the dish holder of the microscope and continuously perfused (at approximately 1 mL/min) with the bath solution described. […]
Values (in pA/nA) of the current amplitudes were generated for each voltage step. The recorded current amplitudes at the steady state level of current modulation (+50 mV) were compared to those from control conditions measured in the pre-treatment phase of the same cell with SigmaPlot. The amount of current modulation was calculated as percentage of control. Data from at least 2 individual experiments were collected and the corresponding mean values and standard errors calculated.

[2] = single intraperitoneal (IP) injection of 2 mg/kg; cited from earlier work
plasma proteins = settings: cited from earlier work

Row | SMILES | Mean stimulation of BK channel activity at +50 mV [1] [%] | Cmax [2] | Covalent binding of metabolic degradation product to plasma proteins (plasma proteins)
1 | COc1ccc(Cl)cc1[C@]1(F)C(=O)Nc2cc(C(F)(F)F)ccc21 [BMS-204352, (3S)-(+)-(5-chloro-2-methoxyphenyl)-1,3-dihydro-3-fluoro-6-(trifluoromethyl)-2H-indol-2-one] | 216.59 | about 130 ng/mL | gives rise to a metabolic degradation product that covalently binds to plasma proteins
2 | COc1ccc(Cl)cc1C1(C)C(=O)Nc2cc(C(F)(F)F)ccc21 (stereo not shown) [Example 1, 3-(5-chloro-2-methoxyphenyl)-3-methyl-6-(trifluoromethyl)indolin-2-one] | 204.09 |  | 
